Laboratory results published in PubChem BioAssay (NCI).
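96-well plates; 48 h exposure; 5 concentrations. Endpoints by linear interpolation between flanking doses. Not reached: highest tested concentration assigned. TGI: concentration producing complete growth inhibition.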

test system: OVCAR-4 ovarian; experiment: DTP human tumour cell line panel, 48 h

| Structure (SMILES) | TGI [µM] |
| --- | --- |
| Cn1c(=O)c2[nH]c(CCCCC(=O)O)nc2n(C)c1=O | > 100 |
| N#Cc1nc(C2=C(Cl)c3ccccc3OC2)[nH]c1C#N | > 100 |
| C/C=C(/C)C(=O)O[C@H]1C[C@@H]2[C@@H](O)c3occ(C)c3C[C@]2(C)[C@@H](C)C1 | 32.6 |
| Cc1ccc(-c2c3nc(c(-c4ccc(C)cc4)c4ccc([nH]4)c(-c4ccc(OCC5COC(C)(C)O5)cc4)c4nc(c(-c5ccc(C)cc5)c5ccc2[nH]5)C=C4)C=C3)cc1 (stereo unspecified) | > 31.6 |
| CC(=NNC(=S)Nc1ccc(C)cc1)c1cccc(C(C)=NNC(=S)Nc2ccc(C)cc2)n1 | 89.1 |
| N#Cc1c(-c2ccccc2)cc(Nc2cccc(C(F)(F)F)c2)n2c1nc1ccccc12 | 22.2 |
| COc1ccc(O)c(/C(C)=N/NC(=S)N(C)C)c1 | 54.3 |
| c1ccc(CSP234N5CCN2CCN3CCN4CC5)c(CSP234N5CCN2CCN3CCN4CC5)c1 | > 100 |
| c1csc(-c2cc(-c3cccs3)c(-c3ccsc3)s2)c1 | > 100 |
| Cc1ccc(S(=O)(=O)OC(c2ccc(Cl)cc2Cl)C2OC(=O)c3ccccc32)cc1 (stereo unspecified) | > 100 |
| CN1C2CCC1CC(CCNC(c1ccccc1)c1ccccc1)C2 (stereo unspecified) | > 100 |
| CCOP(=O)(O)C1C(CO)OC(n2ccc(=O)[nH]c2=O)C1O (stereo unspecified) | > 100 |
| O=C1NCCCNCCCNCCCNC(=O)c2cccc1n2 | > 100 |
| O=C1O/C(=C(/Br)c2ccc(Cl)c(Cl)c2)c2ccccc21 | > 10 |
| CSC1=N/C(=C\c2ccccc2)C(=O)N1CN1CCCCC1 | 56.4 |
| CCOC(=O)C(Cc1cn(S(=O)(=O)c2ccccc2)c2ccccc12)(NC(C)=O)C(=O)OCC | > 100 |

test system: OVCAR-8 ovarian; experiment: DTP human tumour cell line panel, 48 h

| Structure (SMILES) | TGI [µM] |
| --- | --- |
| C=C(CC[C@@H](C)[C@H]1CC[C@@]2(C)C3=C(CC[C@]12C)[C@@]1(C)CC[C@H](O)[C@@H](C)C1CC3)C(C)C (stereo partly specified) | 3.53 |
| C=C1CCC23CC(CC[C@@H]2[C@@]12C[C@@H](c1ccoc1)OC2=O)OC3=O (stereo partly specified) | > 100 |
| CC(=O)OCCOCn1cnc2c(Cl)nc(Cl)nc21 | 44.2 |
| O=C(Cc1ccccc1)N/N=C/c1ccccc1O | > 100 |
| COc1ccc(N2C(=O)c3cc(C)cnc3S2(=O)=O)cc1 | > 100 |
| CC(C)=CC(=O)C[C@H]1C(=O)O[C@@H]2C[C@H]3C(C)=CC(=O)[C@@H](O)[C@]3(C)[C@H]3[C@@]4(O)OC[C@]32[C@@H]1[C@@H](C)[C@H]4O | 0.283 |
| CC1(C)CC(=O)C(/C=N/c2nc(-c3ccccc3)cs2)=C(O)C1 | > 100 |
| CCN(CC)CC(=O)O[C@]1(CC)C(=O)OCc2c1cc1n(c2=O)Cc2cc3ccccc3nc2-1 | 3.65 |
| Cn1c(=O)c2[nH]c(CCCCC(=O)O)nc2n(C)c1=O | > 100 |
| N#Cc1nc(C2=C(Cl)c3ccccc3OC2)[nH]c1C#N | > 100 |
| COc1ccc(-c2cc(=O)c3ccccc3[nH]2)c(OC)c1 | > 100 |
| C/C=C(/C)C(=O)O[C@H]1C[C@@H]2[C@@H](O)c3occ(C)c3C[C@]2(C)[C@@H](C)C1 | 36.9 |
| Cc1ccc(-c2c3nc(c(-c4ccc(C)cc4)c4ccc([nH]4)c(-c4ccc(OCC5COC(C)(C)O5)cc4)c4nc(c(-c5ccc(C)cc5)c5ccc2[nH]5)C=C4)C=C3)cc1 (stereo unspecified) | > 31.6 |
| CC(=NNC(=S)Nc1ccc(C)cc1)c1cccc(C(C)=NNC(=S)Nc2ccc(C)cc2)n1 | 34.5 |
| N#Cc1c(-c2ccccc2)cc(Nc2cccc(C(F)(F)F)c2)n2c1nc1ccccc12 | 10.3 |
| COc1ccc(O)c(/C(C)=N/NC(=S)N(C)C)c1 | > 100 |
| c1ccc(CSP234N5CCN2CCN3CCN4CC5)c(CSP234N5CCN2CCN3CCN4CC5)c1 | > 100 |
| c1csc(-c2cc(-c3cccs3)c(-c3ccsc3)s2)c1 | > 100 |
| Cc1ccc(S(=O)(=O)OC(c2ccc(Cl)cc2Cl)C2OC(=O)c3ccccc32)cc1 (stereo unspecified) | > 100 |
| CN1C2CCC1CC(CCNC(c1ccccc1)c1ccccc1)C2 (stereo unspecified) | > 100 |
| CCOP(=O)(O)C1C(CO)OC(n2ccc(=O)[nH]c2=O)C1O (stereo unspecified) | > 100 |
| O=C1NCCCNCCCNCCCNC(=O)c2cccc1n2 | > 100 |
| O=C1O/C(=C(/Br)c2ccc(Cl)c(Cl)c2)c2ccccc21 | > 10 |
| CSC1=N/C(=C\c2ccccc2)C(=O)N1CN1CCCCC1 | > 100 |
| CCOC(=O)C(Cc1cn(S(=O)(=O)c2ccccc2)c2ccccc12)(NC(C)=O)C(=O)OCC | > 100 |

test system: PC-3 prostate; experiment: DTP human tumour cell line panel, 48 h

| Structure (SMILES) | TGI [µM] |
| --- | --- |
| Cc1ccc(N=Nc2c(C)c(C#N)c(=S)n(C3OC(CO)C(O)C(O)C3O)c2C)cc1 (stereo unspecified) | > 100 |
| C=C(CC[C@@H](C)[C@H]1CC[C@@]2(C)C3=C(CC[C@]12C)[C@@]1(C)CC[C@H](O)[C@@H](C)C1CC3)C(C)C (stereo partly specified) | 2.28 |
| CC(=O)OCCOCn1cnc2c(Cl)nc(Cl)nc21 | 36.5 |
| CNC(=O)N1CN(c2ccccc2)C2(CCN(CCCC3(c4ccc(F)cc4)OCCO3)CC2)C1=O | > 100 |
| O=C(Cc1ccccc1)N/N=C/c1ccccc1O | > 100 |
| COc1ccc(N2C(=O)c3cc(C)cnc3S2(=O)=O)cc1 | > 100 |
| CC(C)=CC(=O)C[C@H]1C(=O)O[C@@H]2C[C@H]3C(C)=CC(=O)[C@@H](O)[C@]3(C)[C@H]3[C@@]4(O)OC[C@]32[C@@H]1[C@@H](C)[C@H]4O | 0.241 |
| CC1(C)CC(=O)C(/C=N/c2nc(-c3ccccc3)cs2)=C(O)C1 | > 100 |
| CCN(CC)CC(=O)O[C@]1(CC)C(=O)OCc2c1cc1n(c2=O)Cc2cc3ccccc3nc2-1 | > 100 |
| Cn1c(=O)c2[nH]c(CCCCC(=O)O)nc2n(C)c1=O | > 100 |
| N#Cc1nc(C2=C(Cl)c3ccccc3OC2)[nH]c1C#N | 71.7 |
| C/C=C(/C)C(=O)O[C@H]1C[C@@H]2[C@@H](O)c3occ(C)c3C[C@]2(C)[C@@H](C)C1 | 35.2 |
| CC(=NNC(=S)Nc1ccc(C)cc1)c1cccc(C(C)=NNC(=S)Nc2ccc(C)cc2)n1 | > 100 |
| COc1ccc(O)c(/C(C)=N/NC(=S)N(C)C)c1 | > 100 |
| c1ccc(CSP234N5CCN2CCN3CCN4CC5)c(CSP234N5CCN2CCN3CCN4CC5)c1 | > 100 |
